Measured values reported in PMC3914206.

How the values were obtained:
panel of 442 kinases [1] = biological target: T1, panel of 442 kinases (Homo sapiens, UniProt Q8NFD2); assay type: binding; settings: Compound Concentration 10 µM
T1 construct: purchased KINOMEscan
T1 sequence (Q8NFD2 1-765): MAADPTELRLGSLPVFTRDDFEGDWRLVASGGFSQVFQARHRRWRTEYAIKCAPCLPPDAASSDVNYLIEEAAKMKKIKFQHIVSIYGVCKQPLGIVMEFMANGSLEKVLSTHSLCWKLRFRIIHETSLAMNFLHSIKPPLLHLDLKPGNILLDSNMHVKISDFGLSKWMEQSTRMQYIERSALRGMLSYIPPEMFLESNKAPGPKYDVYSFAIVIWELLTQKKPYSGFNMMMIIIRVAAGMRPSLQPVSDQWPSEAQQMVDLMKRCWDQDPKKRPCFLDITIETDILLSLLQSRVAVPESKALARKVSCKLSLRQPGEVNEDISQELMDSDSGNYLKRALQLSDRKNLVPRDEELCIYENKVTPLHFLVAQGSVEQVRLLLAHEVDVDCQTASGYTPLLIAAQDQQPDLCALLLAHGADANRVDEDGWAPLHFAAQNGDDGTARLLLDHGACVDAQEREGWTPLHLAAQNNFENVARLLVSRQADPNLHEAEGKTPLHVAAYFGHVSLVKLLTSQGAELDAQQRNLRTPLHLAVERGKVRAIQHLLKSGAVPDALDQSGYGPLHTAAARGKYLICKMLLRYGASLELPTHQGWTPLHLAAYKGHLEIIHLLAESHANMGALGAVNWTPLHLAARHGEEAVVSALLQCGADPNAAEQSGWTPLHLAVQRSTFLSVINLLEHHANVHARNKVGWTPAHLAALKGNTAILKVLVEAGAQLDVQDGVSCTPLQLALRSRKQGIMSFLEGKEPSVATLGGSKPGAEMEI
From the text: (§1) We assessed the selectivity of members of this scaffold using the KINOMEscan methodology across a near comprehensive panel of 442 kinases [[18,27]].

panel of 442 kinases [2] = biological target: T2, panel of 442 kinases (Homo sapiens, UniProt P21709); assay type: binding; settings: Compound Concentration 10 µM
T2 construct: purchased KINOMEscan
T2 sequence (P21709 26-976): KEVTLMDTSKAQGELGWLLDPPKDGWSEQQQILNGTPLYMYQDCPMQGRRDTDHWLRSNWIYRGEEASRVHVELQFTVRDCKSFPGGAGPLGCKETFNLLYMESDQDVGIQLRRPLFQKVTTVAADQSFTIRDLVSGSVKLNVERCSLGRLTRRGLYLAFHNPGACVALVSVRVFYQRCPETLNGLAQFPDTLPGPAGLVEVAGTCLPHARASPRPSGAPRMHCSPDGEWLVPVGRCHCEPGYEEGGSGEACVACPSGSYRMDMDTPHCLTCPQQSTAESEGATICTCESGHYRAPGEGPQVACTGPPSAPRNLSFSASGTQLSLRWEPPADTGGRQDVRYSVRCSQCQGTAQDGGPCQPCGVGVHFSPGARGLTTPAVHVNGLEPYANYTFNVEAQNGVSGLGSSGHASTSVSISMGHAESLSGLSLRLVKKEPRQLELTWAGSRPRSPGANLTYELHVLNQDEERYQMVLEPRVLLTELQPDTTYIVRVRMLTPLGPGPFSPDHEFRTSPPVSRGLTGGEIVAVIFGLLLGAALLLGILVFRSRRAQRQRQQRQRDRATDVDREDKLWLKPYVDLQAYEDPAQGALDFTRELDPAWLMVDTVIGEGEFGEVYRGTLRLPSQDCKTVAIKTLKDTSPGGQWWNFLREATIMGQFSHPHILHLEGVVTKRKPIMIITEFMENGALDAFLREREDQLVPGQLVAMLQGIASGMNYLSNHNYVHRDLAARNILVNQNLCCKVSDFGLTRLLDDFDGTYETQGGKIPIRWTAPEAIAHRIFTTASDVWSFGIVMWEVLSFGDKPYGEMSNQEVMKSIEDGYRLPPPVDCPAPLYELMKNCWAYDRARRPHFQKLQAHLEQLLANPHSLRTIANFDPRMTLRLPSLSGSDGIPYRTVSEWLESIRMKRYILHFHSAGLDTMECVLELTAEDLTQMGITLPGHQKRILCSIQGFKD
From the text: as §1

SMILES: COc1cc(C(=O)N2CCC(N3CCN(C)CC3)CC2)ccc1Nc1ncc2c(n1)N(C)c1ccccc1C(=O)N2C [15 (LRRK2-IN-1)]
- KINOMEscan: ANKK1 (panel of 442 kinases [1]): 100
- KINOMEscan: EPHA1 (panel of 442 kinases [2]): 100

SMILES: CCOc1cc(C(=O)N2CCC(N3CCN(C)CC3)CC2)ccc1Nc1ncc2c(n1)N(C1CCCC1)c1ccccc1C(=O)N2C [Compound 26]
- KINOMEscan: ANKK1 (panel of 442 kinases [1]): 84
- KINOMEscan: EPHA1 (panel of 442 kinases [2]): 98

SMILES: COc1cc(C(=O)N2CCC(N3CCN(C)CC3)CC2)ccc1Nc1ncc2c(n1)N(C1CCCC1)c1ccccc1C(=O)N2C [Compound 25, 11-cyclopentyl-2-((2-methoxy-4-(4-(4-methylpiperazin-1-yl)piperidine-1-carbonyl)phenyl)amino)-5-methyl-5H-benzo[e]pyrimido[5,4-b][1,4]diazepin-6(11H)-one]
- KINOMEscan: ANKK1 (panel of 442 kinases [1]): 85
- KINOMEscan: EPHA1 (panel of 442 kinases [2]): 100
